These results are taken from patent US7749984B2, “Computer-based model for identification and characterization of non-competitive inhibitors of nicotinic acetylcholine receptors and related ligand-gated ion channel receptors” (priority 2003, dated 2010).

Read-outs that look alike come from different tables or passages of the source.

The target of assay [1] is T1, α3β4 nAChR (Rattus norvegicus, UniProt P04757+P12392). Kind of assay: biochemical. The format is binding. On the set-up: host or cells: HEK293 (KXα3β4R2).
T1 sequence (P04757 26-499): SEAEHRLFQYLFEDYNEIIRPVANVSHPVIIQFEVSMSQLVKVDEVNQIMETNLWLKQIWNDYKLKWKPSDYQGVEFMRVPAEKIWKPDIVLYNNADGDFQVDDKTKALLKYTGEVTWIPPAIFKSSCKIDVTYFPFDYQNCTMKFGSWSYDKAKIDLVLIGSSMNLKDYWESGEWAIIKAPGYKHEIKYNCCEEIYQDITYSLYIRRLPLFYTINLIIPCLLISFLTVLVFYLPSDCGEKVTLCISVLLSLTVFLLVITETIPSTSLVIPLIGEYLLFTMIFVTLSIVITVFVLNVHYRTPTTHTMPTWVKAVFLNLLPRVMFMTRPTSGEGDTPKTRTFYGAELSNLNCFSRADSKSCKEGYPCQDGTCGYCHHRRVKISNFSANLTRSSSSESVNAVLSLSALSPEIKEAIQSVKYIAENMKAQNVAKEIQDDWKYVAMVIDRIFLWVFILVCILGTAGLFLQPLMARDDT
T1 sequence (P12392 21-495): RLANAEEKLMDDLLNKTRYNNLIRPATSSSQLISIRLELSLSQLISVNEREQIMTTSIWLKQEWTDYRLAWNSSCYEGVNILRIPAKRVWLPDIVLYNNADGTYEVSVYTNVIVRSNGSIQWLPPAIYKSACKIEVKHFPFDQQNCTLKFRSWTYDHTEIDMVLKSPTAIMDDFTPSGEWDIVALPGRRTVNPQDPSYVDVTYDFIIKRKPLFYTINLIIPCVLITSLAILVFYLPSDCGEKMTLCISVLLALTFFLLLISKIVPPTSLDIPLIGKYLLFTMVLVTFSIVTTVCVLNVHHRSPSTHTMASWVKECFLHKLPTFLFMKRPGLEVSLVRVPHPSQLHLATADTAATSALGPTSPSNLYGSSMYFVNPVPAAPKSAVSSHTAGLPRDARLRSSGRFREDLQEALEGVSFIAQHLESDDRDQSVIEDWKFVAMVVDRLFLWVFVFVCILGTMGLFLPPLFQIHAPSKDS
In assay [2] the target is T1, α3β4 nAChR. In words: Nicotine-stimulated 86Rb+ efflux assay, KXα3β4R2 cell line. The format is cell-based. Also noted: host or cells: HEK293 (KXα3β4R2). How it is done:
After the prediction has been done based on clustering the actual values of IC50 were determined using the nicotine-stimulated ^86Rb^+ efflux assay on cell line KXα3β4R2.

Assay [3] deals with T1, α3β4 nAChR. Conditions: nicotine concentration of ~300 μM or higher; cited from earlier work.
Assay [4] relates to nAChR, SH-SY5Y cells. In words: Rb+ efflux assay, SH-SY5Y cells. To be noted: cell line SH-SY5Y. It is filed as cell-based, human.
Where [5] appears, read: α3β4 nAChR, NLC, read-out: koff dissociation constant rate.
Setting [6] is: α3β4 nAChR, NLC, read-out: kon association constant rate.
Setting [7] is: α3β4 nAChR, NLC, read-out: log K chromatographic equilibrium constant (converted).
Where [8] appears, read: α3β4 nAChR, 10 μM, 20 μl injected, ammonium acetate 10 mM pH 7.4/methanol 85:15.
[9] abbreviates: nicotine-stimulated 86Rb+ efflux, cell line KXα3β4R2, read-out: IC50.
Where [10] appears, read: IC50 of Rb+ efflux, cell line KXα3β4R2.

The term koff denotes the rate constant with which the complex falls apart. As a reminder, the kon is the second-order rate constant of association. Regarding `CC(=O)Nc1ccc(O)cc1` [acetaminophen], the koff in assay [1] (setting [5]) came out at 17.2 s⁻¹. In addition, the kon in assay [1] (setting [6]) turned out to be 8.4e+06 M⁻¹ s⁻¹. In addition, the Kd in assay [1] (setting [7]) is 2040 nM. The “k′(NLC) retention capacity factor” value in assay [1] (setting [8]) worked out at 5.30.
Broadly, the IC50 is the concentration that gives 50% inhibition. Take `CCOC(=O)C1=C(COCCN)NC(C)=C(C(=O)OC)C1c1ccccc1Cl` (stereo not shown) [amlodipine]: it took 5800 nM to reach half-maximal inhibition in assay [2] (IC50, nicotine-stimulated 86Rb+ efflux, cell line KXα3β4R2) (IC50).
Turning to `CN1CCCC1c1cccnc1` (stereo not shown) [nicotine], the “maximum 86Rb+ efflux” value in assay [3] was ~45 % of the amount loaded.
As to `COc1ccc(C(C#N)(CCCN)C(C)C)cc1OC` [Compound D-620], in assay [1] (α3β4 nAChR), the “logk′” value is listed as 1.25. Also, in assay [1] (α3β4 nAChR, NLC), the “koff dissociation constant rate” value came to 3.43 s⁻¹ and the “log K chromatographic equilibrium constant” value amounted to 6.53 M^−1. In addition, the “k′(NLC) retention capacity factor” value in assay [1] (setting [8]) amounted to 17.72. For the same molecule, the IC50 in assay [2] (setting [9]) is 48900 nM.
On to `COc1ccc([C@@H]2Sc3ccccc3N(CCN(C)C)C(=O)[C@@H]2OC(C)=O)cc1` [dilthiazem], for which the “logk′” value in assay [1] (α3β4 nAChR) amounted to 1.64. The “koff dissociation constant rate” value in assay [1] (α3β4 nAChR, NLC) is 1.60 s⁻¹. In addition, the “log K chromatographic equilibrium constant” value in assay [1] (α3β4 nAChR, NLC) was found to be 7.22 M^−1. For the same molecule, the “k′(NLC) retention capacity factor” value in assay [1] (setting [8]) came to 43.53. Besides, the IC50 in assay [2] (cell line KXα3β4R2, read-out: IC50 of Rb+ efflux) was 2260 nM; in assay [2] (setting [9]), 2200 nM; in assay [2] (nicotine-stimulated 86Rb+ efflux, α3β4 nAChR, read-out: IC50), 2300 nM.
`CNCCN1C(=O)[C@H](OC(C)=O)[C@H](c2ccc(OC)cc2)Sc2ccccc21` [MA]: in assay [1] (α3β4 nAChR), the “logk′” value is reported as 1.61. Also, the IC50 in assay [2] (setting [9]) is 4200 nM.
On the same counts, the results for `CNCCN1C(=O)[C@H](O)[C@H](c2ccc(O)cc2)Sc2ccccc21` [Compound M6] are 1.48 and 63100 nM.
For the molecule `c1ccc(C2(N3CCCCC3)CCCCC2)cc1` [phenylcyclidine], the IC50 in assay [4] was 5900 nM; in assay [2] (setting [10]), 7000 nM. The off-rate constant (koff) in assay [1] (setting [5]) was determined as 2.69 s⁻¹. The kon in assay [1] (setting [6]) worked out at 2.32e+07 M⁻¹ s⁻¹. Further, the Kd in assay [1] (setting [7]) is 115 nM. Also, in assay [1] (setting [8]), the “k′(NLC) retention capacity factor” value came out at 24.06.
Take `CN1CC[C@@]23CCCC[C@@H]2[C@@H]1Cc1ccc(O)cc13` [dextrorphan]: the koff in assay [1] (setting [5]) turned out to be 2.3 s⁻¹. The kon in assay [1] (setting [6]) turned out to be 2.07e+07 M⁻¹ s⁻¹. In assay [1] (setting [7]), the Kd is 112 nM.
Turning to `CCCCC1C(=O)N(c2ccccc2)N(c2ccccc2)C1=O` [phenylbutazone], in assay [1] (setting [5]), the koff worked out at 22.2 s⁻¹. In addition, in assay [1] (setting [6]), the kon came out at 8.7e+06 M⁻¹ s⁻¹. In assay [1] (setting [7]), the Kd is 2570 nM.
As to `CC[n+]1c(-c2ccccc2)c2cc(N)ccc2c2ccc(N)cc21` [ethidium], in assay [1] (setting [5]), the koff is 0.18 s⁻¹. Also, the kon in assay [1] (setting [6]) was determined as 3.59e+07 M⁻¹ s⁻¹. In addition, in assay [1] (setting [7]), the Kd was 5.01 nM. For the same molecule, the “k′(NLC) retention capacity factor” value in assay [1] (setting [8]) is reported as 191.82.
Take `COc1ccc2c(c1)[C@]13CCCC[C@@H]1[C@H](C2)N(C)CC3` [dextromethorphan]: in assay [1] (DM vs LM, chromatographic experiments), the “difference in ΔG of the complexes” value is recorded as 0.3 kcal/mol. Further, in assay [1] (chromatographic (NLC and van't Hoff)), the “K′” value is 61.30 (±0.27). In assay [1] (chromatographic (NLC)), the Ka was 23.40 (±0.36) μM^−1. Moreover, the koff is 1.01 s⁻¹ in assay [1] (chromatographic (NLC), read-out: Koff) and 1.01 s⁻¹ in assay [1] (setting [5]). The kon in assay [1] (chromatographic (NLC), read-out: Kon) is 2.37e+07 M⁻¹ s⁻¹; in assay [1] (setting [6]), 2.37e+07 M⁻¹ s⁻¹. Besides, the Kd in assay [1] (chromatographic (NLC), read-out: logKa (converted)) is 42.7 nM; in assay [1] (setting [7]), 42.7 nM. In assay [1] (chromatographic (van't Hoff)), the “ΔG°” value was −2.33 (±0.4) kcal mol^−1. Moreover, the “ΔH°” value in assay [1] (chromatographic (van't Hoff)) is given as −6.92 (±0.19) kcal mol^−1. In assay [1] (chromatographic (van't Hoff)), the “ΔS°” value is given as −15.70 (±0.7) cal mol^−1T^−1. For the same molecule, the “k′(NLC) retention capacity factor” value in assay [1] (setting [8]) stood at 61.30. In addition, the IC50 worked out at 10100 nM in assay [2] (IC50, nicotine stimulated Rb+ efflux); 10000 nM in assay [2] (IC50, nicotine-stimulated 86Rb+ efflux, α3β4 nAChR); 10100 nM in assay [2] (setting [10]).
With `COc1ccc(CCNCCCC(C#N)(c2ccc(OC)c(OC)c2)C(C)C)cc1OC` (single isomer, unassigned) [nor-verapamil-R, nor-verapamil], the koff in assay [1] (setting [5]) stood at 0.58 s⁻¹. In assay [1] (setting [6]), the kon came to 1.6e+07 M⁻¹ s⁻¹. The Kd in assay [1] (setting [7]) was 36.3 nM. Besides, in assay [1] (setting [8]), the “k′(NLC) retention capacity factor” value came out at 97.99.
Regarding `COc1ccc2c(c1)[C@@]13CCCC[C@H]1[C@@H](C2)NCC3` [3 MM], in assay [1] (α3β4 nAChR, NLC), the “koff dissociation constant rate” value was 1.00 s⁻¹ and the “log K chromatographic equilibrium constant” value amounted to 7.28 M^−1. Also, the “k′(NLC) retention capacity factor” value in assay [1] (setting [8]) amounted to 56.47.
Consider `COC(=O)C1=C(C)NC(C)=C(C(=O)OCCN(C)Cc2ccccc2)C1c1cccc([N+](=O)[O-])c1` (stereo not shown) [nicardapine], for which, in assay [1] (α3β4 nAChR), the “logk′” value stood at 2.33. Moreover, the concentration for half-maximal inhibition (IC50) in assay [2] (setting [9]) was found to be 2500 nM.
As for `CNC1(C)C2CCC(C2)C1(C)C` (stereo not shown) [mecamylamine], the “k′(NLC) retention capacity factor” value in assay [1] (pH 7.4) was found to be 10.89.
